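The compound was tested at five concentrations on cells cultured in 96-well plates, with a 48-hour exposure period. GI50 is the concentration that inhibits growth by half. TGI: total growth inhibition.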
Tests used:
Test in all cases: NCI tumour cell line growth inhibition, 48 h
[1] = tested on: SK-MEL-5 melanoma
[2] = tested on: MDA-N
[3] = tested on: M14 melanoma
[4] = tested on: SNB-19 CNS
[5] = tested on: BT-549 breast
[6] = tested on: OVCAR-3 ovarian
[7] = tested on: PC-3 prostate
[8] = tested on: K-562 leukemia
[9] = tested on: HS 578T breast
[10] = tested on: MALME-3M melanoma

Row | SMILES | TGI [1] | TGI [2] | TGI [3] | TGI [4] | TGI [5] | TGI [6] | TGI [7] | TGI [8] | TGI [9] | TGI [10] | GI50 [9]
1 | CC1=C(C(=O)NNC(=O)CC#N)CC(C(=O)NNC(=O)CC#N)=C(C)N1 | > 100 µM | > 100 µM | > 100 µM | > 100 µM | > 100 µM | > 100 µM | – | – | – | – | –
2 | CC/C=C\C/C=C\C/C=C\CCCCCCCC(=O)OC(COC(=O)CCCCCCCCCCCCCCCCC)COC1OC(CO)C(O)C(O)C1O (configuration not stated) | > 25 µM | > 25 µM | > 25 µM | > 25 µM | > 25 µM | > 25 µM | > 25 µM | > 25 µM | 18.5 µM | – | –
3 | NC(=O)NC(=NCc1ccccc1)NCc1ccccc1 | > 100 µM | – | > 100 µM | > 100 µM | – | > 100 µM | – | – | – | – | –
4 | COc1cc(-c2c3c(cc4c2OCO4)[C@@H](Nc2ccc4c(c2)Cc2cc(N[C@@H]5c6cc7c(cc6C(c6cc(OC)c(O)c(OC)c6)[C@H]6C(=O)OC[C@H]56)OCO7)ccc2-4)[C@H]2COC(=O)[C@@H]2C3)cc(OC)c1O (some centres not stated) | 46.2 µM | 34.3 µM | 50.3 µM | > 100 µM | 94.5 µM | > 100 µM | 47 µM | – | > 100 µM | 60.4 µM | –
5 | CC1=CCC[C@H]2[C@](C)(CC3=CC(=O)C4SCCSC4C3=O)[C@@H](C)CC[C@]12C (some centres not stated) | 26.7 µM | 25.9 µM | 29.8 µM | 37.1 µM | 39.7 µM | 48.4 µM | 49.4 µM | 96.2 µM | – | – | –
6 | COc1cc(OC)c(C2c3cc4c(cc3OC(N3CCOCC3)C2C)OCO4)c(OC)c1 (configuration not stated) | > 100 µM | > 100 µM | > 100 µM | > 100 µM | – | > 100 µM | > 100 µM | > 100 µM | 20.5 µM | – | –
7 | CCN(CC)C(=S)SS(=O)(=O)c1ccc(C)cc1 | 30.4 µM | > 100 µM | 28.2 µM | > 100 µM | 68.2 µM | > 100 µM | – | > 100 µM | > 100 µM | 41.9 µM | –
8 | C(=N/Nc1ccc(-c2nc3ccccc3[nH]2)cc1)/c1c(-c2ccccc2)[nH]c2ccccc12 | > 100 µM | 0.185 µM | > 100 µM | – | – | 0.591 µM | 3.92 µM | 11.9 µM | 0.889 µM | – | –
9 | COC(=O)C(CCCCNC(=O)CNC(=O)OCc1ccccc1)NC(=O)C(CCCCNC(=O)CNC(=O)OCc1ccccc1)NC(=O)OCc1ccccc1 (configuration not stated) | > 100 µM | > 100 µM | > 100 µM | > 100 µM | > 100 µM | > 100 µM | > 100 µM | > 100 µM | – | > 100 µM | –
10 | CNc1ccc2c(c1)Cc1ccccc1-2 | 74.7 µM | – | 71.3 µM | > 100 µM | – | 62.5 µM | > 100 µM | > 100 µM | 91.5 µM | > 100 µM | –
11 | C=C1CC2C(=O)N(c3ccccc3)C(=O)C2CC1n1[nH]c(=O)n(Cc2ccccc2)c1=O (configuration not stated) | > 100 µM | – | > 100 µM | > 100 µM | – | > 100 µM | – | > 100 µM | – | > 100 µM | –
12 | CN(C)c1nc(=NCc2ccccn2)ss1 | > 10 µM | > 10 µM | > 10 µM | > 10 µM | – | > 10 µM | > 10 µM | > 9.63 µM | > 10 µM | > 8.91 µM | –
13 | NC(CCSCC(F)F)C(=O)O (configuration not stated) | > 100 µM | – | > 100 µM | > 100 µM | – | > 100 µM | – | > 100 µM | – | > 100 µM | –
14 | Clc1cccc(C2ON=C(c3ccccc3)N2C23CC4CC(CC(C4)C2)C3)c1Cl (configuration not stated) | > 10 µM | > 10 µM | > 10 µM | > 10 µM | – | > 10 µM | > 10 µM | > 10 µM | > 10 µM | > 10 µM | –
15 | CC1(C)OC(CCO)CN1C(=O)OCc1ccccc1 (configuration not stated) | > 100 µM | > 100 µM | > 100 µM | > 100 µM | > 100 µM | > 100 µM | > 100 µM | > 100 µM | – | > 100 µM | –
16 | O=c1c2cc3c(=O)n(CCc4ccccc4CO)c(=O)c3cc2c(=O)n1CCc1ccccc1CO | > 100 µM | – | – | > 100 µM | – | > 100 µM | – | > 100 µM | – | > 100 µM | –
17 | NNC(=O)c1cccc2c1Oc1ccccc1S2 | > 100 µM | – | > 100 µM | > 100 µM | > 100 µM | – | > 100 µM | > 100 µM | > 100 µM | – | –
18 | CCOC(=O)C(C)NC(=O)N(C)C12CC3CC(CC(C3)C1)C2 (configuration not stated) | 286 µM | – | – | > 500 µM | – | > 479 µM | – | > 500 µM | – | 497 µM | –
19 | CCC1C(=O)OCc2c1cc1n(c2=O)CCC12OCCO2 (configuration not stated) | > 100 µM | – | > 100 µM | > 100 µM | – | – | – | > 100 µM | – | – | –
20 | COc1ccc(CCCCl)c(C2=NCCc3ccccc32)c1 | 45 µM | – | > 100 µM | > 100 µM | > 100 µM | > 100 µM | > 100 µM | > 100 µM | > 100 µM | – | –
21 | CC1=NC(C)(C)N(O)C1(C)C | > 100 µM | > 100 µM | > 100 µM | > 100 µM | – | > 100 µM | > 100 µM | > 100 µM | – | > 100 µM | –
22 | O=C(NN1C(=O)CSC1c1ccc(Cl)c(Cl)c1)c1ccncc1 (configuration not stated) | > 100 µM | – | > 100 µM | > 100 µM | – | – | – | > 100 µM | – | > 100 µM | –
23 | COc1cc(CCCOC2OC(COC3OCC(O)C(O)C3O)C(O)C(O)C2O)cc2cc(-c3ccc4c(c3)OCO4)oc12 (configuration not stated) | > 175 µM | – | – | > 175 µM | – | > 175 µM | – | > 175 µM | – | > 175 µM | –
24 | COc1ccc(/C=N/Nc2nc3ccccc3c(=O)n2-c2ccccc2)c(OCc2ccccc2)c1 | > 100 µM | – | > 100 µM | > 100 µM | – | > 100 µM | > 100 µM | > 100 µM | > 100 µM | > 100 µM | > 100 µM
25 | CCOC(=O)c1csc(NC(=O)CCCC#N)n1 | > 100 µM | > 100 µM | > 100 µM | > 100 µM | – | > 100 µM | > 100 µM | > 100 µM | > 100 µM | – | –
26 | O=C(c1ccccc1)[C@H]1Nc2cnccc2C2c3ccccc3CC21 (some centres not stated) | 10.1 µM | – | 19.9 µM | > 100 µM | – | 29.7 µM | – | 15.6 µM | – | 27.4 µM | –
27 | CN1c2ccccc2C(=O)NC12CCN(CC1COc3ccccc3O1)CC2 (configuration not stated) | 41.5 µM | – | > 100 µM | > 100 µM | – | – | – | > 100 µM | > 100 µM | > 100 µM | –

Reference: PubChem BioAssay (NCI)
